“And” between values parts separate entries of the source, which are not always exact repeats. Equal values may be shown once.
Test system: P. falciparum CAM3.IIREV ring stages (0–3 h post invasion)
Test: Plasmodium falciparum ring stage survival assay, susceptible revertant strain
Format: cell-based
Protocol: Following tight synchronisation using sorbitol and Percoll® floatation, ring stage CAM3.II and CAM3.IIREV parasites (0–3 h post invasion) at 1% parasitaemia and 2% haematocrit were incubated with 700 nM of compounds or solvent-only controls for exactly 6 h, before removing the drug, thoroughly washing in RPMI with HEPES, and returning to culture conditions for a further 66 h. Some cells were treated with 700 nM artesunate for 72 h as a no-growth control. DNA replication (indicating growth) was measured at the specified time using SYBR Safe DNA Stain. Microscope slide smears of each condition were stained with 10% v/v Giemsa and examined under a light microscope (×1000 magnification); with ‘viable’ (morphologically normal) and ‘non-viable’ (morphologically aberrant; vacuolated or pyknotic) parasites distinguished according to standard protocol (Witkowski et al, [2013]). Images were captured using a Leica ICC50 camera, with a resolution of 76 nm per pixel, and cropped from larger images using Fiji ImageJ.
Appendix Fraser/Curtis et al.
Cells were detached from a flask using 0.25% Trypsin with 0.2 g/L EDTA (Sigma T4049) and washed with culture media containing no phenol red. Cells were incubated with a serial dilution of each compound, or media/DMSO alone. The protein synthesis inhibitor cycloheximide (Sigma 01810) at 10 µg/mL was used as a positive control to determine background absorbance. 5,000 cells were seeded in each well. After 96 hours, 0.45 mg/mL methylthiazolyldiphenyl-tetrazolium bromide (MTT; Sigma M2128) was added and incubated for a further two hours, before mixing 1.1:1 with 10% w/v sodium dodecyl sulfate (SDS) to solubilise crystals and freezing the plate at -18 °C to stop the assay. Plates were defrosted at room temperature and absorbance was read at 570 nm in an Infinite M1000 pro plate reader […]
Plasmodium falciparum Ring Stage Survival Assay
Ring stage survival assays were conducted according to standard protocols with some modifications (27, 28). CAM3.11 and CAM3.11REV parasites were sorbitol synchronised twice, 12 hours apart, and then incubated for a further 30 hours until the majority of the parasites were mature schizonts (with clearly separated nuclei). Pelleted RBCs were incubated at 37 °C with heparinised RPMI for 15 minutes, and then centrifuged over 75% Percoll® in PBS for 15 minutes at 1,000 g. Mature schizonts were collected, washed with warm RPMI, and cultured for exactly three hours with fresh uRBCs and culture media. After 3 hours, the cultures were sorbitol synchronised and incubated in duplicate with 700 nM of artesunate, PAYb076a, GGA5, HJB8a53, a DMSO solvent-only control or media alone for exactly six hours, before removing the drug, washing in RPMI, and returning to culture conditions. Samples of each cell suspension were transferred to a -18 °C freezer at the start of the assay (time = 0) or treated for the entire 72 hours with 700 nM artesunate to determine background fluorescence under no-growth conditions. After a further 66 hours of incubation (totalling 72 hours), cells were […]
resuspended, and a sample from each well was transferred to a fresh plate and frozen at -18 °C.
Microscope slide smears were made using the remaining cells and stained with 10% v/v Giemsa. Plates were thawed and SYBR Safe DNA Gel Stain (final concentration 1/10,000) diluted in lysis buffer (as above) was added for DNA detection at 490 nm excitation / 520 nm emission on a FLUOstar Optima fluorescence plate reader. Parasite proliferation and viability were also assessed using Giemsa-stained smears examined under a light microscope (1,000× magnification); with ‘viable’ and ‘non-viable’ (vacuolated or pyknotic) parasites distinguished according to standard protocol. Images were captured using a Leica ICC50 camera, with a resolution of 76 nm per pixel.
Growth inhibition data were normalised by subtracting background fluorescence, […]

CC(C)OC(=O)CCC(=O)O[C@H]1CC[C@H]2[C@@H]3CC=C4C[C@@H](O)CC[C@]4(C)[C@H]3CC[C@]12C [C-17-link]
Ring stage survival, growth (700 nM, 6 h treatment, 66 h further growth, CAM3.IIREV susceptible): did not significantly impact the growth
Ring stage survival, individual data points (Figure 4C) (CAM3.11REV, replicate experiments, listed as HJB8a53): 98.68 and 105.5 and 54.94 and 92.61
